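These data come from cells grown in 96-well plates and exposed to compound for 48 hours at five concentrations. TGI is the concentration that stops growth completely.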
Tests used:
Test in all cases: NCI tumour cell line growth inhibition, 48 h
786-0 renal = tested on: 786-0 renal
A498 renal = tested on: A498 renal
A549 NSCLC = tested on: A549 NSCLC
ACHN renal = tested on: ACHN renal
BT-549 breast = tested on: BT-549 breast
CAKI-1 renal = tested on: CAKI-1 renal
CCRF-CEM leukemia = tested on: CCRF-CEM leukemia
COLO 205 colon = tested on: COLO 205 colon
DU-145 prostate = tested on: DU-145 prostate
EKVX NSCLC = tested on: EKVX NSCLC
HCC-2998 colon = tested on: HCC-2998 colon
HCT-116 colon = tested on: HCT-116 colon
HCT-15 colon = tested on: HCT-15 colon
HOP-62 NSCLC = tested on: HOP-62 NSCLC
HOP-92 NSCLC = tested on: HOP-92 NSCLC
HT29 colon = tested on: HT29 colon
IGROV1 ovarian = tested on: IGROV1 ovarian
K-562 leukemia = tested on: K-562 leukemia
KM12 colon = tested on: KM12 colon
LOX IMVI melanoma = tested on: LOX IMVI melanoma
M14 melanoma = tested on: M14 melanoma
MALME-3M melanoma = tested on: MALME-3M melanoma
MCF7 breast = tested on: MCF7 breast
MDA-MB-231 breast = tested on: MDA-MB-231 breast
MDA-MB-435 = tested on: MDA-MB-435
MDA-N = tested on: MDA-N
MOLT-4 leukemia = tested on: MOLT-4 leukemia
NCI-H226 lung = tested on: NCI-H226 lung
NCI-H23 lung = tested on: NCI-H23 lung
NCI-H460 lung = tested on: NCI-H460 lung
NCI-H522 lung = tested on: NCI-H522 lung
NCI/ADR-RES ovarian = tested on: NCI/ADR-RES ovarian
OVCAR-3 ovarian = tested on: OVCAR-3 ovarian
OVCAR-4 ovarian = tested on: OVCAR-4 ovarian
OVCAR-5 ovarian = tested on: OVCAR-5 ovarian
OVCAR-8 ovarian = tested on: OVCAR-8 ovarian
PC-3 prostate = tested on: PC-3 prostate
RPMI-8226 leukemia = tested on: RPMI-8226 leukemia
RXF 393 renal = tested on: RXF 393 renal
SF-268 CNS = tested on: SF-268 CNS
SF-295 CNS = tested on: SF-295 CNS
SF-539 CNS = tested on: SF-539 CNS
SK-MEL-2 melanoma = tested on: SK-MEL-2 melanoma
SK-MEL-28 melanoma = tested on: SK-MEL-28 melanoma
SK-MEL-5 melanoma = tested on: SK-MEL-5 melanoma
SK-OV-3 ovarian = tested on: SK-OV-3 ovarian
SN12C renal = tested on: SN12C renal
SNB-19 CNS = tested on: SNB-19 CNS
SR leukemia = tested on: SR leukemia
SW-620 colon = tested on: SW-620 colon
T-47D breast = tested on: T-47D breast
TK-10 renal = tested on: TK-10 renal
U251 CNS = tested on: U251 CNS
UACC-257 melanoma = tested on: UACC-257 melanoma
UACC-62 melanoma = tested on: UACC-62 melanoma
UO-31 renal = tested on: UO-31 renal

For `NCCCCc1cc(O)c2c(c1O)C(=O)c1ccccc1C2=O`, the TGI (786-0 renal) was 19.6 µM, the TGI (A498 renal) was 37.2 µM and the TGI (A549 NSCLC) was 16.9 µM. The TGI (ACHN renal) was 25.4 µM, the TGI (BT-549 breast) was 49.9 µM and the TGI (CAKI-1 renal) was 27.2 µM. It also gave a TGI (CCRF-CEM leukemia) of 14.4 µM, a TGI (COLO 205 colon) of 10.4 µM and a TGI (DU-145 prostate) of 26.8 µM. For the same molecule, the TGI (EKVX NSCLC) was 33.5 µM, the TGI (HCC-2998 colon) was 28 µM and the TGI (HCT-116 colon) was 18.1 µM. The TGI (HCT-15 colon) was 25.5 µM, the TGI (HOP-62 NSCLC) was 21.3 µM and the TGI (HOP-92 NSCLC) was 31.1 µM. For the same molecule, the TGI (HT29 colon) was 16.7 µM, the TGI (IGROV1 ovarian) was 22.2 µM and the TGI (K-562 leukemia) was 17.3 µM. The TGI (KM12 colon) was 24.2 µM, the TGI (LOX IMVI melanoma) was 21.2 µM and the TGI (M14 melanoma) was 33.6 µM. It also gave a TGI (MALME-3M melanoma) of 30 µM, a TGI (MCF7 breast) of 27.4 µM and a TGI (MDA-MB-231 breast) of 24.2 µM. It also gave a TGI (MDA-MB-435) of 43.6 µM, a TGI (MDA-N) of 28.6 µM and a TGI (MOLT-4 leukemia) of 10.1 µM. For the same molecule, the TGI (NCI-H226 lung) was 19.2 µM, the TGI (NCI-H23 lung) was 28.4 µM and the TGI (NCI-H460 lung) was 26.6 µM. It also gave a TGI (NCI-H522 lung) of 23.7 µM, a TGI (NCI/ADR-RES ovarian) of 30.5 µM and a TGI (OVCAR-3 ovarian) of 19.4 µM. For the same molecule, the TGI (OVCAR-4 ovarian) was 35 µM, the TGI (OVCAR-5 ovarian) was 28.5 µM and the TGI (OVCAR-8 ovarian) was 16.3 µM. It also gave a TGI (PC-3 prostate) of 22.8 µM, a TGI (RPMI-8226 leukemia) of 29.2 µM and a TGI (RXF 393 renal) of 27.9 µM. For the same molecule, the TGI (SF-268 CNS) was 29.9 µM, the TGI (SF-295 CNS) was 28.6 µM and the TGI (SF-539 CNS) was 21.8 µM. It also gave a TGI (SK-MEL-2 melanoma) of 32.4 µM, a TGI (SK-MEL-28 melanoma) of 33.6 µM and a TGI (SK-MEL-5 melanoma) of 28.3 µM. The TGI (SK-OV-3 ovarian) was 29.1 µM, the TGI (SN12C renal) was 23 µM and the TGI (SNB-19 CNS) was 29.2 µM. For the same molecule, the TGI (SR leukemia) was 19.8 µM, the TGI (SW-620 colon) was > 44.2 µM and the TGI (T-47D breast) was 43.3 µM. The TGI (TK-10 renal) was 34 µM, the TGI (U251 CNS) was > 43 µM and the TGI (UACC-257 melanoma) was 33.4 µM. It also gave a TGI (UACC-62 melanoma) of 32.6 µM and a TGI (UO-31 renal) of 20.3 µM.

— PubChem BioAssay (NCI)
